Measured values as given in patent US20200270216A1, “COMPOSITIONS AND METHODS FOR INHIBITING N-SMASE2” (The Regents of the University of California, priority 2017, published 2020).
“Also recorded” adds a separate entry of the source. Where two headings read alike, the source gives them in different places.

Assays:
[1] = test system: HEK293T Tau RD P301S FRET biosensor cells; assay: EV-mediated tau transfer assay; type: cell-based
Method: For EV (extracellular vesicles)-mediated tau transfer assay, donor cells, transduced with AD-brain derived synaptosomal extracts (P2) or synthetic K18 seeds, were cultured for 48 hours in exosome-free medium with or without indicated concentration of tested compounds or DMSO for control, then medium was collected and EVs were purified using Exo-Quick-TC exosome purification kit (SBI, EXOTC10A-1) according to the manufacturing instructions. Naive recipient cells were plated at density 30,000 cells per well (96-well plates), grown for 12 hour in regular medium and then medium was exchanged to exosome-depleted medium, contained exosomes purified from donor cells (each well of recipients received amount of exosomes purified from one well of donor cells). Recipient cells were cultured in the presence of donor cell exosomes for 60 hrs. EV-mediated transfer assay scheme is presented at the FIG. 5A (right).
HEK293T Tau RD P301S FRET biosensor cells were growing in the Dulbecco's Modified Eagle's medium (DMEM) with higher glucose, 10% FBS, and 1% Penicillin-streptomycin at 37° C./5% CO2. Cells were plated in 10-sm dishes (3 million cells per dish in the regular medium) and grown for 12 hrs. Cells assigned to be donors were transduced with pulled synaptosomal (P2) extracts from AD cases using lipofectamine 2000, according to the published literature with minor modifications. We used 35 μg of pulled AD or control (NL) material per one 10-sm dish (TableS1). Defrosted P2 extracts were sonicated in water bath sonicator for 10 minutes, and diluted with Opti-MEM serum reduced medium to the final volume 200 μL per 10-sm dish. In a separate tube lipofectamine 2000 were combined with Opti-MEM medium, based on 25 μl of lipofectamine and 175 μL OptiMEM medium per each 10-sm dish, and incubated for 10 minutes at room temperature (RT). Each P2 or NL extract mix (200 μl) and prepared lipofectamine 2000 mix (200 μl) were combined and incubated for 20 min at RT. Each 10-sm dish with cell received 400 μl of the final liposomes in the total volume of medium 5 ml per dish. Cultures treated with equal amount of empty liposomes were used as an additional control group. Cells were incubated with liposomes for 20 hrs.
For “D+R” assay recipient cells were labeled with 1,1′-Dioctadecyl-3,3,3′,3′-tetramethylindodicarbocyanine (DiD) according to manufacturer's protocol (ThermoFisher V22887) on day 2. On day 3, donor cells were trypsinized (0.05% Trypsin/EDTA), washed with fresh exosome-free medium contained 10% of exosome-depleted FBS (ThermoFisher, A2720803). DiD-labeled recipient cells were also trypsinized and washed in exosome-free medium. […] FRET signal was detected using LSRII flow cytometer (BD biosciences). […]

[2] = test system: HEK293T Tau RD P301S FRET biosensors; assay: P2-induced tau aggregation in Tau P301S FRET biosensors (microscopy, flow cytometry); type: cell-based
Description: The tau biosensors were HEK293T cells, with stably expressed tau repeat domains with disease-associated mutation (P301S) fused to either CFP or YFP (HEK293T Tau RD P301S FRET biosensors) were transduced with pulled synaptosomal (P2) extracts from AD brains using lipofectamine 2000. Cultures treated with equal amount of empty liposomes were used as a control. […] Cells were imaged after 24 hrs using automated microscope imaging system (Lionheart FX) equipped with 20× objective and CFP-YFP FRET Image filter cube.
After sixty hours treatment, cells and cell medium were collected. Cells were prepared for flow cytometry and FRET signal was detected using LSRII flow cytometer (BD biosciences). Cells were back gated onto forward scatter versus side scatter to insure a single cell analysis, 5,000 cells were collected within the gate. FRET negative and FRET-positive cell populations were defined as previously described.

[3] = Pharmacokinetic / brain permeability study, LC-MS/MS of brain and plasma; type: in vivo, C57BL6 mice; settings: C57BL/6J, mouse, mice, 100 mg/kg oral gavage
Method: Brain permeability and target engagement studies were conducted in C57BL/6J mice. […] Drug level evaluation in brain and plasma samples was performed by LC-MS/MS analysis. Brain tissue was homogenized and nSMase2 activity measured as described above.

SMILES: O=c1[nH]c(=S)[nH]c(-c2ccccc2)c1Cc1c(O)ccc2ccccc12 [cambinol]
- EV-mediated transfer of tau to recipient cells ([1]; P2-seeded donor cells treated at 50 μM, 48 hours): decrease; also recorded: more effective than the nSMase2 inhibitor GW4869
- reduction of EV-mediated transfer of tau seeds to naive recipient cells ([1]; inhibitor treatment of donor cells): 8 times
- FRET-positive tau aggregates, microscopy ([2]; 10 μM, imaged after 24 hrs, vs DMSO (FIG. 3A)): visibly decreased; also recorded: Decrease in the tau aggregation
- FRET-positive signal (integrated FRET density), flow cytometry ([2]; 10 uM, sixty hours treatment (FIG. 3B)): significant decrease
- concentration at 4 h ([3]; brain, read-out: level in brain): 135 ± 60.9 ng/g
- concentration at 4 h ([3]; plasma, read-out: level in plasma): 8150 ± 2450 ng/mL
